Reference: patent publication US10292981B2, “Oxazoline and isoxazoline derivatives as CRAC modulators” (LUPIN LIMITED, priority 2010, dated 2019)

tested on: IL-2 secretion, Jurkat T cells; experiment: Inhibition of IL-2 secretion (PHA-stimulated Jurkat T cells, ELISA); format: cell-based; conditions: Homo sapiens; Jurkat T cells stimulated with PHA, 20 to 24 hours
Method: The CRAC channel modulatory activity of the compounds were thus evaluated by measuring the secretion of IL-2 by antigen stimulated T-cells in vitro. Alternatively, such activity can also be evaluated by assay methods known to one skilled in the art.
Inhibition of IL-2 secretion: Jurkat T cells were seeded at a density of 0.5 to 1 million cells per well in RPMI medium. Test compounds from this invention were added to the cells at different concentrations. This was followed by the addition of PHA, a T cell mitogen after 10 minutes.
The cells were then incubated for 20 to 24 hours in a CO2 incubator at 37° C. After incubation with the compounds, cells were centrifuged, collected the supernatant and processed for ELISA to quantitate the amount of IL-2 secreted. A commercial ELISA kit (R&D Systems, Inc. Minneapolis, Minn., USA) was used to estimate the IL-2 concentrations. Amount of IL-2 secreted by cells stimulated with PHA was considered as a 100% maximal signal and the decrease in amount of IL-2 secreted by cells treated with the test compounds was expressed as percent inhibition of the maximal signal. The dose response data was analyzed using 4-parametric sigmoidal dose response (variable slope) curve-fit.

IC50 | SMILES
100 to 1000 nM | Cc1ccc(C2=NOC(C)(C)C2=O)cc1-c1cnc(NC(=O)c2ccncc2F)cn1 [Example 107, N-(5-(5-(5,5-dimethyl-4-oxo-4,5-dihydroisoxazol-3-yl)-2-methylphenyl)pyrazin-2-yl)-3-fluoroisonicotinamide]
100 to 1000 nM | CC(C)c1ccc(C2=NOC(C)(C)C2=O)cc1-c1cnc(NC(=O)c2c(F)cccc2F)cn1 [Example 8, N-(5-(5-(5,5-dimethyl-4-oxo-4,5-dihydroisoxazol-3-yl)-2-isopropylphenyl)pyrazin-2-yl)-2,6-difluorobenzamide]
< 100 nM | Cc1ccc(C2=NOC(C)(C)C2=O)cc1-c1cnc(NC(=O)c2c(F)cccc2Cl)cn1 [Example 80, 2-Chloro-N-(5-(5-(5,5-dimethyl-4-oxo-4,5-dihydroisoxazol-3-yl)-2-methylphenyl)pyrazin-2-yl)-6-fluorobenzamide]
100 to 1000 nM | Cc1ccc(C2=NOC(C)(C)C2)cc1-c1cnc(NC(=O)c2c(F)cccc2F)cn1 [Example 53]
> 1000 nM | Cc1ccc(C2=NOC(CO)(CCO)C2)cc1-c1ccc(NC(=O)c2c(F)cccc2F)cc1 (stereo not drawn) [Example 145, 2,6-Difluoro-N-(5′-(5-(2-hydroxyethyl)-5-(hydroxymethyl)-4,5-dihydroisoxazol-3-yl)-2′-methyl-[1,1′-biphenyl]-4-yl)benzamide]
< 100 nM | Cc1ccc(C2=NOC(C)(C)C2=O)cc1-c1ccc(NC(=O)c2c(F)cccc2F)cc1 [Example 3]
100 to 1000 nM | Cc1ccc(C2=NOC(C)(C)C2=O)cc1-c1cnc(NC(=O)c2cccnc2C)cn1 [Example 113, N-(5-(5-(5,5-dimethyl-4-oxo-4,5-dihydroisoxazol-3-yl)-2-methylphenyl)pyrazin-2-yl)-2-methylnicotinamide]
100 to 1000 nM | Cc1ccc(C2=NOC3(CCCCC3)C2=O)cc1-c1ccc(NC(=O)c2c(F)cccc2F)cc1 [Example 58, 2,6-Difluoro-N-(2′-methyl-5′-(4-oxo-1-oxa-2-azaspiro[4.5]dec-2-en-3-yl)-[1,1′-biphenyl]-4-yl)benzamide]
100 to 1000 nM | COc1ccc(C2=NOC(C)(C)C2=O)cc1-c1ccc(NC(=O)c2c(F)cccc2F)cn1 [Example 18, N-(6-(5-(5,5-dimethyl-4-oxo-4,5-dihydroisoxazol-3-yl)-2-methoxyphenyl)pyridin-3-yl)-2,6-difluorobenzamide]
100 to 1000 nM | C=CCOc1ccc(C2=NOC(C)(C)C2=O)cc1-c1ccc(NC(=O)c2c(F)cccc2F)cc1 [Example 132, N-(2′-(allyloxy)-5′-(5,5-dimethyl-4-oxo-4,5-dihydroisoxazol-3-yl)-[1,1′-biphenyl]-4-yl)-2,6-difluorobenzamide]
100 to 1000 nM | COC1C(c2ccc(C)c(-c3ccc(NC(=O)c4c(F)cccc4F)cc3)c2)=NOC1(C)C (stereo not drawn) [Example 24, 2,6-Difluoro-N-(5′-(4-methoxy-5,5-dimethyl-4,5-dihydroisoxazol-3-yl)-2′-methyl-[1,1′-biphenyl]-4-yl)benzamide]
100 to 1000 nM | Cc1ccc(C2=NC(C)(C)CO2)cc1-c1ccc(NC(=O)c2c(F)cccc2F)cc1 [Example 61, N-(5′-(4,4-dimethyl-4,5-dihydrooxazol-2-yl)-2′-methyl-[1,1′-biphenyl]-4-yl)-2,6-difluorobenzamide]
< 100 nM | Cc1ccc(C2=NOC(C)(C)C2=O)cc1-c1cnc(NC(=O)c2c(F)cncc2F)cn1 [Example 114, N-(5-(5-(5,5-dimethyl-4-oxo-4,5-dihydroisoxazol-3-yl)-2-methylphenyl)pyrazin-2-yl)-3,5-difluoroisonicotinamide]
< 100 nM | Cn1nc(-c2ccc(OC(F)F)c(-c3ccc(C(=O)Nc4c(F)cccc4F)s3)c2)oc1=O [Example 173, 5-(2-(Difluoromethoxy)-5-(4-methyl-5-oxo-4,5-dihydro-1,3,4-oxadiazol-2-yl)phenyl)-N-(2,6-difluorophenyl) thiophene-2-carboxamide]
< 100 nM | COc1ccc(-c2nn(C)c(=O)o2)cc1-c1cnc(NC(=O)c2c(F)cccc2F)cn1 [Example 93, 2,6-Difluoro-N-(5-(2-methoxy-5-(4-methyl-5-oxo-4,5-dihydro-1,3,4-oxadiazol-2-yl)phenyl)pyrazin-2-yl)benzamide]
< 100 nM | CCc1ccc(-c2nn(C)c(=O)o2)cc1-c1ccc(C(=O)Nc2c(F)cccc2F)s1 [Example 171, N-(2,6-Difluorophenyl)-5-(2-ethyl-5-(4-methyl-5-oxo-4,5-dihydro-1,3,4-oxadiazol-2-yl)phenyl)thiophene-2-carboxamide]
100 to 1000 nM | Cc1ccc(C2=NOC(C)(C)C2=O)cc1-c1ccc(NC(=O)c2c(F)cccc2F)nc1 [Example 4, N-(5-(5-(5,5-Dimethyl-4-oxo-4,5-dihydroisoxazol-3-yl)-2-methylphenyl)pyridin-2-yl)-2,6-difluorobenzamide]

IC50 | SMILES
> 1000 nM | COc1ccc(C2=NOC(C)(C)C2=O)cc1-c1ccc(NC(=O)c2c(F)cccc2F)nc1 [Example 17, N-(5-(5-(5,5-dimethyl-4-oxo-4,5-dihydroisoxazol-3-yl)-2-methoxyphenyl)pyridin-2-yl)-2,6-difluorobenzamide]
100 to 1000 nM | Cc1c(-c2cnc(NC(=O)C3CCc4ccccc4C3)cn2)cccc1-c1nn(C)c(=O)o1 (racemic) [Example 138, (R/S)-N-(5-(2-Methyl-3-(4-methyl-5-oxo-4,5-dihydro-1,3,4-oxadiazol-2-yl)phenyl)pyrazin-2-yl)-1,2,3,4-tetrahydronaphthalene-2-carboxamide]
< 100 nM | CCc1ccc(C2=NOC(C)(C)C2=O)cc1-c1ccc(C(=O)Nc2c(F)cccc2F)s1 [Example 157, N-(2,6-Difluorophenyl)-5-(5-(5,5-dimethyl-4-oxo-4,5-dihydroisoxazol-3-yl)-2-ethyl-phenyl)thiophene-2-carboxamide]
100 to 1000 nM | CN(C)c1ccc(C2=NOC(C)(C)C2=O)cc1-c1ccc(NC(=O)c2c(F)cccc2F)cc1 [Example 136, N-(5′-(5,5-Dimethyl-4-oxo-4,5-dihydroisoxazol-3-yl)-2′-(dimethylamino)-[1,1′-biphenyl]-4-yl)-2,6-difluorobenzamide]
> 1000 nM | CC1(C)ON=C(c2ccc(C(C)(C)C)c(-c3ccc(NC(=O)c4c(F)cccc4F)cc3)c2)C1=O [Example 10, N-(2′-(tert-butyl)-5′-(5,5-dimethyl-4-oxo-4,5-dihydroisoxazol-3-yl)-[1,1′-biphenyl]-4-yl)-2,6-difluorobenzamide]
< 100 nM | COc1ccc(C2=NOC(C)(C)C2=O)cc1-c1ccc(NC(=O)c2snnc2C)cc1 [Example 16, N-(5′-(5,5-Dimethyl-4-oxo-4,5-dihydroisoxazol-3-yl)-2′-methoxy-[1,1′-biphenyl]-4-yl)-4-methyl-1,2,3-thiadiazole-5-carboxamide]
< 100 nM | Cn1nc(-c2ccc(Cl)c(-c3ccc(NC(=O)c4c(F)cccc4F)cc3)c2)oc1=O [Example 46, N-(2′-Chloro-5′-(4-methyl-5-oxo-4,5-dihydro-1,3,4-oxadiazol-2-yl)-[1,1′-biphenyl]-4-yl)-2,6-difluorobenzamide]
< 100 nM | Cc1ccc(-c2nn(C)c(=O)o2)cc1-c1ccc(NC(=O)c2c(F)cccc2F)cc1 [Example 33, 2,6-Difluoro-N-(2′-methyl-5′-(4-methyl-5-oxo-4,5-dihydro-1,3,4-oxadiazol-2-yl)-[1,1′-biphenyl]-4-yl)benzamide]
100 to 1000 nM | CCc1ccc(C2=NOC(C)(C)C2=O)cc1-c1ccc(NC(=O)c2c(F)cccc2F)cn1 [Example 7, N-(6-(5-(5,5-dimethyl-4-oxo-4,5-dihydroisoxazol-3-yl)-2-ethylphenyl)pyridin-3-yl)-2,6-difluorobenzamide]
< 100 nM | CCn1nc(-c2ccc(C)c(-c3ccc(NC(=O)c4c(F)cccc4F)cc3)c2)oc1=O [Example 34, N-(5′-(4-Ethyl-5-oxo-4,5-dihydro-1,3,4-oxadiazol-2-yl)-2′-methyl-[1,1′-biphenyl]-4-yl)-2,6-difluorobenzamide]
100 to 1000 nM | Cc1ccc(C2=NOC(C)(C)C2=O)cc1-c1cnc(NC(=O)c2c(Cl)cncc2Cl)cn1 [Example 103, 3,5-Dichloro-N-(5-(5-(5,5-dimethyl-4-oxo-4,5-dihydroisoxazol-3-yl)-2-methylphenyl)pyrazin-2-yl)isonicotinamide]
100 to 1000 nM | CC1(C)ON=C(c2ccc(Cl)c(-c3ccc(NC(=O)c4c(F)cccc4F)cc3)c2)C1=O [Example 11, N-(2′-chloro-5′-(5,5-dimethyl-4-oxo-4,5-dihydroisoxazol-3-yl)-[1,1′-biphenyl]-4-yl)-2,6-difluorobenzamide]
< 100 nM | Cc1ccc(-c2nn(C)c(=O)o2)cc1-c1cnc(NC(=O)c2c(F)cccc2F)cn1 [Example 87, 2,6-Difluoro-N-(5-(2-methyl-5-(4-methyl-5-oxo-4,5-dihydro-1,3,4-oxadiazol-2-yl)phenyl)pyrazin-2-yl)benzamide]
100 to 1000 nM | Cc1ccc(C2=NOC(C)(C)C2=O)cc1-c1cnc(NC(=O)c2cc(F)ccc2F)cn1 [Example 67, N-(5-(5-(5,5-Dimethyl-4-oxo-4,5-dihydroisoxazol-3-yl)-2-methylphenyl)pyrazine-2-yl)-2,5-difluorobenzamide]
> 1000 nM | Cc1ccc(C2=NOC(C)(C)C2=O)cc1-c1cnc(NC(=O)c2ccc(F)cc2)cn1 [Example 69, N-(5-(5-(5,5-Dimethyl-4-oxo-4,5-dihydroisoxazol-3-yl)-2-methylphenyl)pyrazine-2-yl)-4-fluorobenzamide]
< 100 nM | CC(=O)Nc1ccc(C2=NOC(C)(C)C2=O)cc1-c1ccc(NC(=O)c2c(F)cccc2F)cc1 [Example 19, N-(2′-acetamido-5′-(5,5-dimethyl-4-oxo-4,5-dihydroisoxazol-3-yl)-[1,1′-biphenyl]-4-yl)-2,6-difluorobenzamide]
